Experimental data as given in patent publication US11873291B2, “Quinoline cGAS antagonist compounds” (ImmuneSensor Therapeutics, Inc., priority 2020, dated 2024).
Like-named read-outs stand apart in the source and are kept apart here.

Legend:
[1] = molecular target: T1, recombinant human cGAS (aa147-522) (Homo sapiens, UniProt Q8N884); test: In vitro inhibition assay of cGAS activity (ATP consumption, KinaseGlo Max); format: biochemical
T1 construct: recombinant human cGAS (aa147-522); His6-SUMO (cleaved yes); made in house; host or cells: E. coli BL21/pLys
T1 sequence (Q8N884 147-522): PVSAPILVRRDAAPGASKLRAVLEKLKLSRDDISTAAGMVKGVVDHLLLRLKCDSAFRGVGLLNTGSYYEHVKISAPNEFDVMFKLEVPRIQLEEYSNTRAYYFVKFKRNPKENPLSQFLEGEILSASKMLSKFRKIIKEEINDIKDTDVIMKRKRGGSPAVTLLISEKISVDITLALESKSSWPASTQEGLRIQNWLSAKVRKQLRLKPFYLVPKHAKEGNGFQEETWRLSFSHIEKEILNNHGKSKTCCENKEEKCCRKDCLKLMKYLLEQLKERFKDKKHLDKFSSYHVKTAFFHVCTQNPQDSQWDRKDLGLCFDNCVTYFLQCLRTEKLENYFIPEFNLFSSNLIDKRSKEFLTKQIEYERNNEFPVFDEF
Procedure, shortened: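 IC50 came from plotting % ATP consumption against log compound concentration, with leftover ATP detected by KinaseGlo Max chemiluminescence. Reactions ran 20 min at 37 °C with 1.5 μg/mL human cGAS (aa147-522), 6.6 μM ATP, 0.1 mM GTP and 0.01 mg/mL DNA at pH 7.5.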

[2] = tested on: cGAS activity in Reporter THP1 cell line; test: Cellular assay to measure cGAS activity: ISRE-Gaussia luciferase reporter THP1 cells transfected with ISD; format: cell-based; conditions: Homo sapiens
Procedure, shortened: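 THP1 ISRE-Gaussia luciferase reporter cells (0.3×10^6/well) pre-incubated 5 min with compound serial dilutions, then lipofectamine-transfected with 2 μg/mL ISD (45 bp DNA) or mock. Secreted luciferase read 16 h later with 1 μM coelenterazine at pH 6.5; IC50 from fold increase over mock. Specificity counter-screen used 2 μg/mL poly(I:C) or Sendai virus 50 Unit/mL.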

[3] = Table 3, read-out: cGAS Inhibition Results IC50
[4] = THP-1, untitled table after Table 4 (continuation)
[5] = THP-1, Table 4, Gaussia luciferase
[6] = Table 2, read-out: cGAS Inhibition Results IC50

Row | SMILES | IC50 [1, 3] [nM] | IC50 [2, 4] [nM] | IC50 [2, 5] [nM] | IC50 [1, 6] [nM]
1 | COC(=O)[C@@H]1C[C@H](C)CN1c1cc(-n2ccnc2)c2ccc(Cl)c(Cl)c2n1 [I-586] | 2000 to 30000 |  | < 2000 | 
2 | CN(CCCCCC(=O)O)c1cc(-n2ccnc2)c2ccc(Cl)c(Cl)c2n1 [I-691] | < 2000 |  | < 2000 | 
3 | COC(=O)[C@@H]1[C@H](F)CCN1c1cc(-n2ccnc2)c2ccc(Cl)c(Cl)c2n1 [I-650] | 2000 to 30000 |  | 2000 to 10000 | 
4 | O=C(O)CC[C@@H]1CCCN1c1cc(-n2ccnc2)c2ccc(Cl)c(Cl)c2n1 [I-679] | < 2000 |  | 2000 to 10000 | 
5 | CC(COC[C@@H]1CCCN1c1cc(-n2ccnc2)c2ccc(Cl)c(Cl)c2n1)C(=O)O (stereo partly shown) [I-719] | < 2000 |  | < 2000 | 
6 | COC(=O)COC[C@@H]1CCCN1c1cc(-n2ccnc2)c2ccc(Cl)c(Cl)c2n1 [I-667, methyl (S)-2-((1-(7,8-dichloro-4-(1H-imidazol-1-yl)quinolin-2-yl)pyrrolidin-2-yl)methoxy)acetate] | < 2000 |  | < 2000 | 
7 | COC(=O)[C@@H]1[C@@H](O)CCN1c1cc(-n2ccnc2)c2ccc(Cl)c(Cl)c2n1 [I-596] | 2000 to 30000 |  | < 2000 | 
8 | O=C(O)CCOC[C@@H]1[C@H]2C[C@H]2CN1c1cc(-n2ccnc2)c2ccc(Cl)c(Cl)c2n1 [I-710] | < 2000 |  | 2000 to 10000 | 
9 | O=C(O)CCOC[C@@H]1CC(F)(F)CN1c1cc(-n2ccnc2)c2ccc(Cl)c(Cl)c2n1 [I-699] | < 2000 |  | < 2000 | 
10 | O=C(O)/C=C/C[C@@H]1CCCN1c1cc(-n2ccnc2)c2ccc(Cl)c(Cl)c2n1 [I-685] | < 2000 |  | < 2000 | 
11 | O=C(O)CCOC[C@@H]1CCCN1c1cc(-n2ccnc2)c2ccc(Cl)c(Cl)c2n1 [I-664, (S)-3-((1-(7,8-dichloro-4-(1H-imidazol-1-yl)quinolin-2-yl)pyrrolidin-2-yl)methoxy)propanoic acid] | < 2000 |  | < 2000 | 
12 | COC(=O)/C=C/[C@@H]1CCCN1c1cc(-n2ccnc2)c2ccc(Cl)c(Cl)c2n1 [I-687] | 2000 to 30000 |  | > 10000 | 
13 | O=C(O)C[C@@H]1CCN1c1cc(-n2ccnc2)c2ccc(Cl)c(Cl)c2n1 [I-461] | < 2000 |  | > 10000 | 
14 | CC(CC(=O)O)OC[C@@H]1CCCN1c1cc(-n2ccnc2)c2ccc(Cl)c(Cl)c2n1 (stereo partly shown) [I-717] | < 2000 |  | < 2000 | 
15 | CC(C)(C)OC(=O)[C@@H]1[C@@H](O)CCN1c1cc(-n2ccnc2)c2ccc(Cl)c(Cl)c2n1 [I-645, tert-butyl (2S,3S)-1-(7,8-dichloro-4-(1H-imidazol-1-yl)quinolin-2-yl)-3-hydroxypyrrolidine-2-carboxylate] | 2000 to 30000 |  | < 2000 | 
16 | O=C(O)CCC[C@@H]1CCCN1c1cc(-n2ccnc2)c2ccc(Cl)c(Cl)c2n1 [I-682] | < 2000 |  | < 2000 | 
17 | O=C(O)CCOC[C@@H]1C[C@H](F)CN1c1cc(-n2ccnc2)c2ccc(Cl)c(Cl)c2n1 [I-705] | < 2000 |  | < 2000 | 
18 | COC(=O)[C@@H]1[C@@H]2[C@H](CN1c1cc(-n3ccnc3)c3ccc(Cl)c(Cl)c3n1)C2(C)C [I-471] | 2000 to 30000 |  | 2000 to 10000 | 
19 | COC(=O)COCC[C@@H]1CCCN1c1cc(-n2ccnc2)c2ccc(Cl)c(Cl)c2n1 [I-669] | 2000 to 30000 |  | < 2000 | 
20 | COC(=O)[C@@H]1CCCN1c1cc(-n2ccnc2)c2ccc(Cl)c(Cl)c2n1 [I-593] | 2000 to 30000 |  | 2000 to 10000 | 
21 | COC(=O)CCOCC[C@@H]1CCCN1c1cc(-n2ccnc2)c2ccc(Cl)c(Cl)c2n1 [I-673] | 2000 to 30000 |  | < 2000 | 
22 | CC(C)OC(=O)[C@@H]1CCCN1c1cc(-n2ccnc2)c2ccc(Cl)c(Cl)c2n1 [I-595] | 2000 to 30000 |  | 2000 to 10000 | 
23 | O=C(O)CCOCC1CN(c2cc(-n3ccnc3)c3ccc(Cl)c(Cl)c3n2)C1 [I-689] | < 2000 |  | > 10000 | 
24 | COc1ccc(-c2cc(-n3ccnc3)c3ccc(Cl)cc3n2)cc1C(=O)O [I-15] |  |  | > 10000 | < 2000
25 | O=C(OC(C(F)(F)F)C(F)(F)F)[C@@H]1[C@@H](O)CCN1c1cc(-n2ccnc2)c2ccc(Cl)c(Cl)c2n1 [I-663] | < 2000 |  | < 2000 | 
26 | NS(=O)(=O)CC1CCN(c2cc(-n3ccnc3)c3ccc(Cl)c(Cl)c3n2)C1 (stereo not shown) [I-149] |  |  | > 10000 | < 2000
27 | O=C(O)[C@@H]1C[C@@H](F)CN1c1cc(-n2ccnc2)c2ccc(Cl)c(Cl)c2n1 [I-322] |  |  | > 10000 | < 2000
28 | COC(=O)CCC[C@@H]1CCCN1c1cc(-n2ccnc2)c2ccc(Cl)c(Cl)c2n1 [I-681] | 2000 to 30000 |  | < 2000 | 

Now from value to molecule:

Row | IC50 [1, 3] [nM] | IC50 [2, 4] [nM] | IC50 [2, 5] [nM] | IC50 [1, 6] [nM] | SMILES
29 | 2000 to 30000 | 2000 to 10000 |  |  | N[C@H]1CCN(c2cc(-n3ccnc3)c3ccc(Cl)c(Cl)c3n2)C1 [I-765, (S)-1-(7,8-dichloro-4-(1H-imidazol-1-yl)quinolin-2-yl)pyrrolidin-3-amine]
30 | < 2000 |  | < 2000 |  | O=C(O)COC[C@@H]1CCCN(c2cc(-n3ccnc3)c3ccc(Cl)c(Cl)c3n2)C1 [I-744]
31 | < 2000 |  | < 2000 |  | O=C(O)Cc1ccccc1OC[C@@H]1CCCN1c1cc(-n2ccnc2)c2ccc(Cl)c(Cl)c2n1 [I-734]
32 | < 2000 | < 2000 |  |  | O=C(O)CCOC[C@@H]1CCCN1c1cc(-n2ccnc2)c2cc(Cl)c(Cl)c(Cl)c2n1 [I-876]
33 | < 2000 |  | < 2000 |  | O=C(O)COC[C@H]1CCCN(c2cc(-n3ccnc3)c3ccc(Cl)c(Cl)c3n2)C1 [I-743]
34 | < 2000 | > 10000 |  |  | O=C(O)CCOCCN(CCO)c1cc(-n2ccnc2)c2ccc(Cl)c(Cl)c2n1 [I-838]
35 | < 2000 | < 2000 |  |  | CO[C@H]1C[C@@H](COCCC(=O)O)N(c2cc(-n3ccnc3)c3ccc(Cl)c(Cl)c3n2)C1 [I-797]
36 | < 2000 | < 2000 |  |  | C[C@H]1CC[C@@H](COCCC(=O)O)N1c1cc(-n2ccnc2)c2ccc(Cl)c(Cl)c2n1 [I-810]
37 | < 2000 | < 2000 |  |  | O=C(O)c1ccccc1OCCNc1cc(-n2ccnc2)c2ccc(Cl)c(Cl)c2n1 [I-886]
38 | < 2000 | < 2000 |  |  | CC(C)(C)O[C@@H]1C[C@@H](COCCC(=O)O)N(c2cc(-n3ccnc3)c3ccc(Cl)c(Cl)c3n2)C1 [I-796]
39 | < 2000 | < 2000 |  |  | CC(C)N(CCOCCC(=O)O)c1cc(-n2ccnc2)c2ccc(Cl)c(Cl)c2n1 [I-833]
40 | < 2000 | > 10000 |  |  | N#CNC(=O)COC[C@@H]1CCCN1c1cc(-n2ccnc2)c2ccc(Cl)c(Cl)c2n1 [I-762]
41 | < 2000 | 2000 to 10000 |  |  | CC(OCCC(=O)O)c1cccc(-c2cc(-n3ccnc3)c3ccc(Cl)c(Cl)c3n2)c1 (stereo not shown) [I-880]
42 | < 2000 |  | 2000 to 10000 |  | COC(=O)COC[C@@H]1CN(c2cc(-c3cn[nH]c3)c3ccc(Cl)c(Cl)c3n2)CCO1 [I-751]
43 | < 2000 |  | 2000 to 10000 |  | O=C(O)c1cnn(C[C@@H]2CCCN2c2cc(-n3ccnc3)c3ccc(Cl)c(Cl)c3n2)c1 [I-728]
44 | < 2000 |  | 2000 to 10000 |  | O=C(O)C1CC(OC[C@@H]2CCCN2c2cc(-n3ccnc3)c3ccc(Cl)c(Cl)c3n2)C1 (stereo partly shown) [I-723]

Row | IC50 [1, 3] [nM] | IC50 [2, 4] [nM] | IC50 [2, 5] [nM] | IC50 [1, 6] [nM] | SMILES
45 | < 2000 | < 2000 |  |  | C[C@H]1CN(c2cc(-n3ccnc3)c3ccc(Cl)c(Cl)c3n2)C[C@@H]1COCCC(=O)O [I-814]
46 | < 2000 | 2000 to 10000 |  |  | O=C(O)c1cccc(CNc2cc(-n3ccnc3)c3ccc(Cl)c(Cl)c3n2)c1 [I-887]
47 | < 2000 | < 2000 |  |  | O=C(O)CCOC[C@@H]1CCCN1c1cc(-c2cn[nH]c2)c2cc(Cl)cc(Cl)c2n1 [I-853]
48 | < 2000 | < 2000 |  |  | O=C(O)CCOC[C@@H]1CCN(c2cc(-n3ccnc3)c3ccc(Cl)c(Cl)c3n2)C1 [I-773]
49 | < 2000 | 2000 to 10000 |  |  | O=C(O)CCOCC1CCCCN(c2cc(-n3ccnc3)c3ccc(Cl)c(Cl)c3n2)C1 (stereo not shown) [I-866]
50 | 2000 to 30000 | > 10000 |  |  | O=C(O)CCOC[C@@H]1CCCN1c1cc(-c2cn[nH]c2)c2c(Cl)cc(Cl)cc2n1 [I-855]
51 | < 2000 |  | < 2000 |  | O=C(O)CCOC[C@@H]1CCCN(c2cc(-n3ccnc3)c3ccc(Cl)c(Cl)c3n2)C1 [I-750]
52 | < 2000 | 2000 to 10000 |  |  | O=C(O)CCc1cccc(Nc2cc(-n3ccnc3)c3ccc(Cl)c(Cl)c3n2)c1 [I-883]
53 | < 2000 | < 2000 |  |  | O=C(O)CCOC[C@@H]1C[C@@H](C2CCCCC2)CN1c1cc(-n2ccnc2)c2ccc(Cl)c(Cl)c2n1 [I-803]
54 | 2000 to 30000 | < 2000 |  |  | COC(=O)Cc1cc(F)cc(CNc2cc(-n3ccnc3)c3ccc(Cl)c(Cl)c3n2)c1 [I-890, methyl 2-(3-(((7,8-dichloro-4-(1H-imidazol-1-yl)quinolin-2-yl)amino)methyl)-5-fluorophenyl)acetate]
55 | < 2000 | > 10000 |  |  | O=C(O)c1noc(CCNc2cc(-n3ccnc3)c3ccc(Cl)c(Cl)c3n2)n1 [I-882]
56 | < 2000 | < 2000 |  |  | C=C1C[C@@H](COCCC(=O)O)N(c2cc(-n3ccnc3)c3ccc(Cl)c(Cl)c3n2)C1 [I-801]
57 | 2000 to 30000 | > 10000 |  |  | C[C@@H]1CN(c2cc(-n3ccnc3)c3ccc(Cl)c(Cl)c3n2)[C@H](C(=O)O)[C@H]1O [I-778]
58 | < 2000 | > 10000 |  |  | COc1c(Cl)ccc2c(-n3ccnc3)cc(N3CCC[C@H]3COCCC(=O)O)nc12 [I-860]
59 | < 2000 |  | > 10000 |  | O=C(O)COC[C@@H]1CN(c2cc(-c3cn[nH]c3)c3ccc(Cl)c(Cl)c3n2)CCO1 [I-740]
